Measured values taken from article PMC10006239, “C–N bond formation by a polyketide synthase” (Nature Communications, 2023).
Each block holds one compound with its values, some of them ahead of it.

Columns and labels:
[1] = target: T1, CalA3 (Streptomyces chartreusis, UniProt A0A2N9BJK0); test: HPLC turnover assay at […] nm, products confirmed by LC-HRMS and NMR; assay type: biochemical; conditions: 5 µM CalA3, 0.15 mM SNAC-N1, 0.5 mM 3-HAA, 25 mM Tricine pH 7.5, 30 °C, 13 h; amidation and hydrolysis
T1 construct: gene SCNRRL3882_6975; full length, gene 5178 bp, C-terminal 6xHis tag (pET28a), E. coli BAP1; about 180 kDa per chain, homodimer about 360 kDa; domains DD-KS-LD-AT-DH-psiKR/KR, no ACP
T1 sequence (A0A2N9BJK0 1-1727): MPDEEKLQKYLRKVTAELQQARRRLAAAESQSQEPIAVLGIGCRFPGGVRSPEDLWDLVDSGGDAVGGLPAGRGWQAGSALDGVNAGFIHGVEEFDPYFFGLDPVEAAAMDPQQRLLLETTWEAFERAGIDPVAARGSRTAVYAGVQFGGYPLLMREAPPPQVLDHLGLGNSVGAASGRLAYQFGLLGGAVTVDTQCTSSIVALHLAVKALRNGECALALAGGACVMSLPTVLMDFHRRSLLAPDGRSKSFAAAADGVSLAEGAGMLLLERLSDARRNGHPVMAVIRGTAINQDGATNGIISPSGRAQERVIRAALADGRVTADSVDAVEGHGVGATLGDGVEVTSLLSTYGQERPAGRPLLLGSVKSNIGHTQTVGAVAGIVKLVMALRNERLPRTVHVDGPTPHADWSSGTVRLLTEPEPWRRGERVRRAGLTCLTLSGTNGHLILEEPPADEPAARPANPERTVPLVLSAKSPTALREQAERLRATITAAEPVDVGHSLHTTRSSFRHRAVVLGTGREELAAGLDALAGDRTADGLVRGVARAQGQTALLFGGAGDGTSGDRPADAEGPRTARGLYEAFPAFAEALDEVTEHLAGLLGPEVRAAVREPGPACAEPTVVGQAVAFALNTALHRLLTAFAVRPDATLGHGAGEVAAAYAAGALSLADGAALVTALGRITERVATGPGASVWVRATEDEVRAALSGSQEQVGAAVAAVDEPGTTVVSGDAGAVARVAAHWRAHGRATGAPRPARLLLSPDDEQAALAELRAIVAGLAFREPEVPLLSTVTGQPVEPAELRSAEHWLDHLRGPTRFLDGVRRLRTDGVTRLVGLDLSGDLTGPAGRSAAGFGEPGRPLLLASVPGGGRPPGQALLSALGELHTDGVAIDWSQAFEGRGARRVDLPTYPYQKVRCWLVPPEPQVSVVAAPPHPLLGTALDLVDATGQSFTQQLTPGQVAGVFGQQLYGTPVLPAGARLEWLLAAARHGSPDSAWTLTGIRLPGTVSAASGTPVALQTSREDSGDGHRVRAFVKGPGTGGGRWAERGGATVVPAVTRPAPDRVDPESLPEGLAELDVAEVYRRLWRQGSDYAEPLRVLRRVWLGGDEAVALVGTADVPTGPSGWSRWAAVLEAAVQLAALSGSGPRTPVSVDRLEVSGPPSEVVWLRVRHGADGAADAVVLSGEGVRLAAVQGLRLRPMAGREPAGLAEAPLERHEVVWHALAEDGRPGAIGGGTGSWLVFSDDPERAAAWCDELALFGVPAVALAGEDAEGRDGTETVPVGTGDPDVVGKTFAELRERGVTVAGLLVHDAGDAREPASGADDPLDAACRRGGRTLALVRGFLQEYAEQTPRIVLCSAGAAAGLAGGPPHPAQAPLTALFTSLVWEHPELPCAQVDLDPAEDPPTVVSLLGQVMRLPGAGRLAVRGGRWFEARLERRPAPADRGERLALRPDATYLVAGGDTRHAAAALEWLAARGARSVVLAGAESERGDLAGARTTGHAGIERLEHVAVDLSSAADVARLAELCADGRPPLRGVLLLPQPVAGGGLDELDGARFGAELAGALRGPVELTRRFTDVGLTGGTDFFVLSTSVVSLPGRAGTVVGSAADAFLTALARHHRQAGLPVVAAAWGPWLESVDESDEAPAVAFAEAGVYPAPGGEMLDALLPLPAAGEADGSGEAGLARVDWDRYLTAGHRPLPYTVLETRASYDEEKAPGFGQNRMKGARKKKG

[2] = target: T1, CalA3; test: cryo-EM structure, […] Å; assay type: binding; conditions: KS substrate tunnel, chain A only; specimen also contained 3-HAA; PDB id assigned by order of listing
[3] = target: T1, CalA3; test: cryo-EM structure, […] Å; assay type: binding; conditions: KS substrate tunnel, chains A and B; specimen also contained 3-HAA; PDB id assigned by order of listing
[4] = target: CalA3 (Streptomyces chartreusis NRRL 3882); test: cryo-EM structure; purified CalA3 at ~4 mg/mL in 50 mM Tricine pH 8.0 with 1 mM 3-HAA and SNAC-N1 (further samples at ~4.5 mg/mL with amidation or hydrolysis product and 3-HAA); Titan Krios 300 kV, K3 detector; homodimer

Compound: CC(=O)NCCSC(=O)CCCCCCCCCC(=O)c1ccc[nH]1 [compound 1, SNAC-N1]
HPLC turnover assay at 290 nm, products confirmed by LC-HRMS and NMR [1]: SNAC-N1 and 3-HAA were incubated with CalA3, and a total of three peaks were detected

Compound: O=C(O)CCCCCCCCCC(=O)c1ccc[nH]1 [compound 2, 11-oxo-11-(pyrrol-2-yl) undecanoic acid]
cryo-EM structure, 3.97 Å [2]: the hydrolysis product was captured only in the KS domain of chain A

Compound: O=C(CCCCCCCCCC(=O)c1ccc[nH]1)Nc1c(O)cccc1C(=O)O [compound 3, amidation product]
cryo-EM structure, 3.84 Å [3]: the amidation products were captured in the KS domains of both chain A and B

stoichiometry N [4]: 2
Compound: CalA3 (enzyme)
